Measurements: ChEMBL document CHEMBL4665787, “Bifunctional and Unusual Amino Acid β- or γ-Ester Prodrugs of Nucleoside Analogues for Improved Affinity to ATB and Enhanced Metabolic Stability: An Application to Floxuridine” (J Med Chem, 2020)
Activity calls are given as the source filed them. No cut-off for these calls is given here.

Assays:
[1] = Toxicity in NOD SCID nude mouse xenografted with human MDA-MB-231 cells assessed as body weight at 90 mg/kg, iv for 20 days (reference value: 30.1 +/- 4.1g); format: organism-based; details: in vivo, 480 h, time 20 day
[2] = Cmax in NOD SCID nude mouse plasma xenografted with ZR-75-1 cells assessed as floxuridine; 5-fluoro-2-deoxyuridine concentration at 90 mg/kg, iv measured up to 24 hrs by HPLC-MS/MS analysis; format: ADME, organism-based; parameters: route intravenous, dose 90 mg/kg, time <=24; details: in vivo
[3] = Half life of compound in human ZR-75-1 cell homogenate; format: ADME, tissue-based
[4] = target: T1, Solute carrier family 15 member 1 (Homo sapiens, UniProt P46059); assay: Substrate activity at PEPT1 (unknown origin) expressed in MDCK cells assessed as inhibition of gly-sar uptake incubated for 10 mins by HPLC/MS/MS analysis; format: cell-based
T1 sequence (P46059 whole entry): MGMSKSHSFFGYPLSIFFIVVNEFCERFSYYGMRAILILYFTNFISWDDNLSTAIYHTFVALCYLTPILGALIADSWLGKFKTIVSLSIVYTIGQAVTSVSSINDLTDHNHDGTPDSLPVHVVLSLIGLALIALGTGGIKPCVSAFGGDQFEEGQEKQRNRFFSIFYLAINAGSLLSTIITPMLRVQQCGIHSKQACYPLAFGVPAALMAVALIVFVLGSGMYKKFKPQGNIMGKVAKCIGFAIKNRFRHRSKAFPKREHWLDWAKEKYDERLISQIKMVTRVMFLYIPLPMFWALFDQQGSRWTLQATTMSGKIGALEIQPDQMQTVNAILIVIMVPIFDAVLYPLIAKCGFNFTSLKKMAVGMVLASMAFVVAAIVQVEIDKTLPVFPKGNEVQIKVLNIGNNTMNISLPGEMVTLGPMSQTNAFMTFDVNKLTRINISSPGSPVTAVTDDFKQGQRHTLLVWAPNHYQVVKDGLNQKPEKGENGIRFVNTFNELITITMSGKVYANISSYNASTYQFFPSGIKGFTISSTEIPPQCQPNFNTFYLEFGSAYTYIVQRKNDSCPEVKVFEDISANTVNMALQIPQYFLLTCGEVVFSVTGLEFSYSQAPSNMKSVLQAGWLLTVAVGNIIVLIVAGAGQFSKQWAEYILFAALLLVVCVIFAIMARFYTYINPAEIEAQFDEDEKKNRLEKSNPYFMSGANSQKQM

[5] = Drug uptake in Xenopus laevis oocytes at 0.5 mM incubated for 10 mins by HPLC analysis; format: ADME, cell-based; details: oocyte, 500 µM
[6] = AUC (0 to t) in NOD SCID nude mouse plasma xenografted with ZR-75-1 cells assessed as fluorouracil AUC at 90 mg/kg, iv measured up to 24 hrs by HPLC-MS/MS analysis; format: ADME, organism-based; parameters: route intravenous, dose 90 mg/kg, time <=24; details: in vivo
[7] = target: T2, Sodium- and chloride-dependent neutral and basic amino acid transporter B(0+) (Homo sapiens) (UniProt Q9UN76); assay: Substrate activity at SLC6A14 (unknown origin) expressed in Xenopus laevis oocytes assessed as increase in ABT0+ mediated drug uptake at 1 mM in presence of Na+ ion by HPLC analysis; format: cell-based; details: Oocyte
T2 sequence (whole entry): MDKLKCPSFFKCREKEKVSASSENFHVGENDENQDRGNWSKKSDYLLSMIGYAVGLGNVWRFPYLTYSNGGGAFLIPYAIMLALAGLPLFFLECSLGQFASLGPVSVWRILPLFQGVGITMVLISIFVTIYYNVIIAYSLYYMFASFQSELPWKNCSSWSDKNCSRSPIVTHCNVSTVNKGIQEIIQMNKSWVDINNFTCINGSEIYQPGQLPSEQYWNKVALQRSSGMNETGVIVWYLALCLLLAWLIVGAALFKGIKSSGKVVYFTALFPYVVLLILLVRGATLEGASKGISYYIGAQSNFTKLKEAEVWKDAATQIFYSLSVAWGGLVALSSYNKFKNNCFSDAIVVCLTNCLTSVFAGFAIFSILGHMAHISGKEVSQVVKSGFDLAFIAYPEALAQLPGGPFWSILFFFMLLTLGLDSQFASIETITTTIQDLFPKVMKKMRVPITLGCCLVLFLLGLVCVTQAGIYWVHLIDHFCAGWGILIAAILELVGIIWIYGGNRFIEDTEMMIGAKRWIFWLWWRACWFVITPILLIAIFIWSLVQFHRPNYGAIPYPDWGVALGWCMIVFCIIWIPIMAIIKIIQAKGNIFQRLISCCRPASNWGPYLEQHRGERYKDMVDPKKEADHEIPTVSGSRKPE

MIA PaCa-2 [8] = assay: Potency index, ratio of FUdR GI50 to test compound GI50 for growth inhibition of human MIA-PaCa-2 cells; format: functional
ZR-75-1 [9] = assay: Antitumour activity against human ZR-75-1 cells xenografted in NOD SCID nude mouse assessed as tumour inhibition at 90 mg/kg, iv administered for 20 days measured every 2 day by caliper method relative to control; format: functional; details: ZR-75-1, iv, 480 h, time 20 day
thymidine phosphorylase = assay: Half life of compound in thymidine phosphorylase buffer at 300 uM by HPLC analysis; format: physicochemical
MDA-MB-231 = assay: Antitumour activity against human MDA-MB-231 cells xenografted in NOD SCID nude mouse assessed as tumour inhibition at 90 mg/kg, iv administered for 20 days measured every 2 day by caliper method relative to control; format: functional; details: MDA-MB-231, iv, 480 h, time 20 day
[10] = Ratio of AUC (0 to t) in NOD SCID nude mouse plasma xenografted with ZR-75-1 cells to AUC (0 to t) in NOD SCID mouse tumour xenografted with ZR-75-1 cells; format: ADME, cell-free, Tumor/Plasma
[11] = Selectivity ratio of substrate activity at PEPT1 (unknown origin) expressed in MDCK cells assessed as PEPT1 mediated drug uptake to drug uptake in MDCK cells
[12] = Half life of compound in human MIA PaCa-2 cell homogenate; format: ADME, tissue-based
[13] = Drug uptake in MDCK cells incubated for 10 mins by HPLC analysis; format: ADME, cell-based, Canis lupus familiaris; details: dog, 500 µM, dose 0.5 mM
[14] = Half life of compound in PBS buffer at pH 7.4 at 200 uM by HPLC analysis; format: physicochemical
[15] = Half life in rat plasma at 200 uM measured up to 120 mins by HPLC-MS/MS analysis; format: ADME, cell-free
MIA PaCa-2 [16] = assay: Antitumour activity against human MIA-PaCa-2 cells xenografted in NOD SCID nude mouse assessed as tumour inhibition at 90 mg/kg, iv administered for 20 days measured every 2 day by caliper method relative to control; format: functional; details: MIA PaCa-2, iv, 480 h, time 20 day
ZR-75-1 [17] = assay: Potency index, ratio of FUdR GI50 to test compound GI50 for growth inhibition of human ZR-75-1 cells; format: functional
[18] = Toxicity in NOD SCID nude mouse xenografted with human MIA PaCa-2 cells assessed as body weight at 90 mg/kg, iv for 20 days (reference value: 28.4 +/- 2.1g); format: organism-based; details: in vivo, 480 h, time 20 day

Cmax [2]: 145.9 ng/mL
half-life [3]: 13.4 min
IC50 [4]: 10.2 mM
Drug uptake [5]: 0.32 nmol/mg/min
AUCt [6]: 588.2 ng·h/mL
Activity [7]: Active
half-life at 300 µM (thymidine phosphorylase): 299 min
Ratio [10]: 3.9
half-life [12]: 16.4 min
Drug uptake [13]: < 0.04 nmol/mg/min
half-life at 200 µM [14]: 286 min
half-life at 200 µM [15]: 150 min
SMILES: N[C@@H](CC(=O)OC[C@H]1O[C@@H](n2cc(F)c(=O)[nH]c2=O)C[C@@H]1O)C(=O)O
Activity [1]: 27.6 g
RatioGI50 (MIA PaCa-2 [8]): 7
inhibition in vivo at 90 mg/kg (ZR-75-1 [9]): 58.6%
inhibition in vivo at 90 mg/kg (MDA-MB-231): 33.8%
Ratio [11]: 1
inhibition in vivo at 90 mg/kg (MIA PaCa-2 [16]): 62.4%
RatioGI50 (ZR-75-1 [17]): 7
Activity [18]: 26.3 g
